# Publication PMC4594923, “Food Polyphenols Fail to Cause a Biologically Relevant Reduction of COX-2 Activity” (PLoS ONE, 2015)
# Entries after “also recorded” stand apart in the source; their conditions may differ. Marks after values point to notes of the source that are not given here.
# Assays:
# [1] = molecular target: T1, COX–2 (Homo sapiens, UniProt P35354); test: cell-free COX–2 enzyme assay (PGE2 formation, LC-MS); assay type: biochemical
# T1 sequence (P35354 18-604): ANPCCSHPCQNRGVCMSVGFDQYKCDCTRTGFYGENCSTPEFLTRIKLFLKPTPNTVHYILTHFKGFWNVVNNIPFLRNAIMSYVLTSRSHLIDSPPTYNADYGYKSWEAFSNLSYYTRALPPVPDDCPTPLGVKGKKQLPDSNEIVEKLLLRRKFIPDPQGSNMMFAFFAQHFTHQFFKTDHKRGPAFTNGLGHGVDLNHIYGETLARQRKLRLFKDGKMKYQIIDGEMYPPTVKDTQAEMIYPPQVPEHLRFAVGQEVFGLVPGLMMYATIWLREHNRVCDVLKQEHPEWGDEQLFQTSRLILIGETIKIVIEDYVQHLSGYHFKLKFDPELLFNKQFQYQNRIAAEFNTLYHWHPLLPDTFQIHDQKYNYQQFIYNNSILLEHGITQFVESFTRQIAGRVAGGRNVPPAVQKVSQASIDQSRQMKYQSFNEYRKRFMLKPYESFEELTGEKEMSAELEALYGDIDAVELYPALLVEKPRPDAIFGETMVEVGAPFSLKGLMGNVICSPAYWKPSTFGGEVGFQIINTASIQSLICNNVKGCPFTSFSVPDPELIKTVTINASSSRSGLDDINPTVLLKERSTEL
# Method: (§1) The in vitro assays were performed as described [6, 16, 18] and COX metabolites were quantified by LC-MS [18].
# (§2) Primary human monocytes were freshly isolated from human blood. Blood was collected from healthy human subjects after written informed consent was obtained. […] After 24 h, the supernatant was sampled for LC-MS and cells were collected for the COX–2 expression analysis by Western Blotting.
# (§3) GraphPad Prism 5.0 (GraphPad Software, San Diego, USA) was used for data analysis, the fitting of dose response curves and calculation of the IC50 values. Statistical differences were determined by Dunnetts test (LPS vs. other groups).
# [2] = test system: arachidonic acid (AA) cascade; test: liver tissue oxylipin/PG levels in LPS induced sepsis in mice; assay type: in vivo, C57BL/6N mice; details: liver tissue 24 h after LPS treatment;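 also: male C57BL/6N mice pretreated i.p. with polyphenols at 100 mg/kg bw or vehicle before LPS, liver oxylipins measured by LC-MS after solid-phase extraction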
# From the text: Twelve week old male C57BL/6N mice (Charles River, Sulzfeld, Germany) were used for all experiments. C57BL/6 male mice (H2^b, 11–13 weeks of age) were obtained from Charles River (Sulzfeld, Germany). Animals were cared for in accordance with the institution’s guidelines for experimental animals and with the guidelines of the American Physiological Society. […] Mice were monitored closely and if they appeared compromised (i.e. inactivity, no intake of food or water) after compound or LPS injection the experiment was terminated.
# Oxylipin levels were analyzed in plasma and tissues by LC-MS following SPE extraction of 200 μl plasma or tissue homogenate (50 mg) on Chromabond C18 ec cartridges (Machery-Nagel, Düren, Germany) [19].
# as §3
# [3] = clinical chemistry in plasma (urea, creatinine, AST, ALT, LDH) in LPS induced sepsis in mice; assay type: in vivo, C57BL/6N mice; details: compound i. p. 100 mg/kg bw 2 h before LPS, 24 h after LPS
# [4] = molecular target: T2, ovine recombinant COX–1 (Ovis aries, UniProt P05979); test: cell-free COX–1 enzyme assay (PGE2 formation, LC-MS); assay type: biochemical; design: purchased Cayman Chemicals/ Biomol, Hamburg, Germany
# T2 sequence (P05979 25-600): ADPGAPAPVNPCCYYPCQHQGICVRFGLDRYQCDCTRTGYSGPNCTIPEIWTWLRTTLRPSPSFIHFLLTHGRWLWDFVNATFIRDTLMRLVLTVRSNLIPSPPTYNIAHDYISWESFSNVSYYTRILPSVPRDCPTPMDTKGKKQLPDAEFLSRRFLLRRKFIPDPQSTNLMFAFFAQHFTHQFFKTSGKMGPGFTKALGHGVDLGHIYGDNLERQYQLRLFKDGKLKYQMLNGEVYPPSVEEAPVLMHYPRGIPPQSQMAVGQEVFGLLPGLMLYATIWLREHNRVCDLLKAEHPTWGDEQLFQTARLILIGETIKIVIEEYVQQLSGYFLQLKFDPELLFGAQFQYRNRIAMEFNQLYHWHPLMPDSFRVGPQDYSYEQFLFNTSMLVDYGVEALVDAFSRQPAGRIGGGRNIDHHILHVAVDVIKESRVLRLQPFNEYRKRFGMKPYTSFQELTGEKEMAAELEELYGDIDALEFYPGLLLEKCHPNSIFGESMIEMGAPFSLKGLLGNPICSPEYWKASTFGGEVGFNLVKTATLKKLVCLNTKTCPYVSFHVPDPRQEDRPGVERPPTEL
# Method: as §1, §2, §3
smiles,measurement,setting,value
"Oc1ccc(/C=C/c2cc(O)cc3c2[C@@H](c2cc(O)cc(O)c2)[C@H](c2ccc(O)cc2)O3)cc1 [ε-Viniferin, ε-viniferin]","effect on COX–2 dependent PGE2 formation, cell-free enzyme assay",[1],dose-dependently decreased; also recorded: inhibited
same,IC50,"[1]; calculated based on PGE2, n = 3, read-out: IC50 (95% CI), COX–2 enzyme assay",11 µM
same,"4,5-DiHDPE concentration",[2]; mean,20 nM
same,4-HDHA concentration,[2]; mean,6.8 nM
same,5(6)-EpETrE concentration,[2]; mean,45 nM
same,"5,6-DiHETE concentration",[2]; mean,< 0.30 nM
same,"5,6-DiHETrE concentration",[2]; mean,1.9 nM
same,5-HEPE concentration,[2]; mean,1.2 nM
same,5-HETE concentration,[2]; mean,1.2 nM
same,5-iPF2α concentration,[2]; mean,2.3^‡ nM
same,5-oxo-ETE concentration,[2]; mean,14 nM
same,6-keto-PGF1α concentration,[2]; mean,29 nM
same,"7,8-DiHDPE concentration",[2]; mean,1.9 nM
same,7-HDHA concentration,[2]; mean,1.7 nM
same,8(9)-EpETE concentration,[2]; mean,1.5 nM
same,8(9)-EpETrE concentration,[2]; mean,9.8 nM
same,"8,9-DiHETE concentration",[2]; mean,1.2 nM
same,"8,9-DiHETrE concentration",[2]; mean,4.4 nM
same,"8,15-DiHETE concentration",[2]; mean,< 0.80 nM
same,8-HDHA concentration,[2]; mean,9.0 nM
same,8-HEPE concentration,[2]; mean,< 0.60 nM
same,8-HETE concentration,[2]; mean,4.2 nM
same,8-iPF2α concentration,[2]; mean,< 0.10 nM
same,9(10)-EpODE concentration,[2]; mean,9.2 nM
same,9(10)-EpOME concentration,[2]; mean,84 nM
same,9(10)-Epoxystearic acid concentration,[2]; mean,66 nM
same,"9,10,13-TriHOME concentration",[2]; mean,16 nM
same,"9,10-DiHODE concentration",[2]; mean,3.9 nM
same,"9,10-DiHOME concentration",[2]; mean,43^* nM
same,"9,10-Dihydroxystearic acid concentration",[2]; mean,170 nM
same,"9,12,13-TriHOME concentration",[2]; mean,110 nM
same,9-HETE concentration,[2]; mean,2.9 nM
same,9-HODE concentration,[2]; mean,250 nM
same,9-HOTrE concentration,[2]; mean,5.0 nM
same,9-oxo-ODE concentration,[2]; mean,53 nM
same,10(11)-EpDPE concentration,[2]; mean,15 nM
same,"10,11-DiHDPE concentration",[2]; mean,2.2^† nM
same,10-HDHA concentration,[2]; mean,2.2 nM
same,11(12)-EpETE concentration,[2]; mean,2.0 nM
same,11(12)-EpETrE concentration,[2]; mean,27 nM
same,"11,12-DiHETE concentration",[2]; mean,1.0^* nM
same,"11,12-DiHETrE concentration",[2]; mean,5.5^† nM
same,11-HDHA concentration,[2]; mean,2.8 nM
same,11-HETE concentration,[2]; mean,7.0 nM
same,12(13)-EpODE concentration,[2]; mean,3.9 nM
same,12(13)-EpOME concentration,[2]; mean,72 nM
same,"12,13-DiHODE concentration",[2]; mean,< 2.0 nM
same,"12,13-DiHOME concentration",[2]; mean,45^‡ nM
same,12-HEPE concentration,[2]; mean,6.8 nM
same,12-HETE concentration,[2]; mean,32 nM
same,13(14)-EpDPE concentration,[2]; mean,12 nM
same,"13,14-DiHDPE concentration",[2]; mean,1.6^‡ nM
same,"13,14-dihydro-15-keto-PGE1 concentration",[2]; mean,0.62 nM
same,"13,14-dihydro-15-keto-PGF2α concentration",[2]; mean,7.0 nM
same,13-HDHA concentration,[2]; mean,3.8 nM
same,13-HODE concentration,[2]; mean,230 nM
same,13-HOTrE concentration,[2]; mean,8.5 nM
same,13-oxo-ODE concentration,[2]; mean,9.4 nM
same,14(15)-EpETE concentration,[2]; mean,1.8 nM
same,14(15)-EpETrE concentration,[2]; mean,21 nM
same,"14,15-DiHETE concentration",[2]; mean,2.1^‡ nM
same,"14,15-DiHETrE concentration",[2]; mean,12^‡ nM
same,14-HDHA concentration,[2]; mean,18 nM
same,15(16)-EpODE concentration,[2]; mean,12 nM
same,15(S)-HETrE concentration,[2]; mean,5.2 nM
same,"15,16-DiHODE concentration",[2]; mean,17^† nM
same,15-HEPE concentration,[2]; mean,1.7 nM
same,15-HETE concentration,[2]; mean,14 nM
same,15-oxo-ETE concentration,[2]; mean,2.8 nM
same,16(17)-EpDPE concentration,[2]; mean,11 nM
same,"16,17-DiHDPE concentration",[2]; mean,3.0^‡ nM
same,16-HDHA concentration,[2]; mean,2.4 nM
same,17(18)-EpETE concentration,[2]; mean,3.2 nM
same,"17,18-DiHETE concentration",[2]; mean,5.6^‡ nM
same,17-HDHA concentration,[2]; mean,9.0 nM
same,18-HEPE concentration,[2]; mean,1.6 nM
same,19(20)-EpDPE concentration,[2]; mean,17 nM
same,"19,20-DiHDPE concentration",[2]; mean,17^‡ nM
same,20-HDHA concentration,[2]; mean,9.1^* nM
same,20-HEPE concentration,[2]; mean,4.1^‡ nM
same,20-HETE concentration,[2]; mean,< 2.6 nM
same,EKODE concentration,[2]; mean,34 nM
same,PGD1 concentration,[2]; mean,0.91 nM
same,PGD2 concentration,[2]; mean,13 nM
same,PGE1 concentration,[2]; mean,0.88 nM
same,PGE2 concentration,[2]; mean,4.2 nM
same,PGF1α concentration,[2]; mean,2.5 nM
same,TXB2 concentration,[2]; mean,8.4 nM
same,TxB3 concentration,[2]; mean,< 0.05 nM
same,dihomo-PGF2α concentration,[2]; mean,1.0 nM
same,PGF2α concentration,"[2]; mean (first listing, r6)",12 nM
same,PGF2α concentration,"[2]; mean (second listing, r9)",12 nM
same,plasma ALT activity,[3],elevated; also recorded: moderate elevation
same,plasma AST activity,[3],elevated; also recorded: moderate elevation
same,plasma LDH activity,[3],moderate elevation
same,plasma creatinine level,[3],elevation
same,plasma urea level,[3],elevation
same,"effect on COX–1 dependent PGE2 formation, cell-free enzyme assay",[4],dose-dependently decreased; also recorded: inhibited
same,IC50,"[4]; calculated based on PGE2, n = 3, read-out: IC50 (95% CI), COX–1 enzyme assay",1.6 µM
